Reference: paper PMC12491701, “Discovery of an APP-selective BACE1 inhibitor for Alzheimer's disease” (Neurotherapeutics, 2025)
Values joined by “and” are separate entries in the source; they are usually repeats but may differ in a detail not shown here. Equal entries are not always repeated.

Legend:
BACE1 = BACE1 (Homo sapiens, UniProt P56817); experiment: P5-P5′ BACE1 inhibition assay; type: biochemical; settings: cell-free; read-out: BACE1 IC50 (P5-P5′ assay; BACE1-APP)
Protocol: For the P5-P5′ BACE1 inhibition assay, 4 ​μL of assay buffer was added to each well, followed by 2 ​μL of BACE1 diluted in assay buffer to 7.5 ​ng/μL. Then, 2 ​μL of inhibitor, at concentrations along an 11 ​pt. two-fold dilution series starting at 10 ​μM, or 0.5 ​μM, were added to appropriate wells and incubated for 30 ​min at room temperature. For all dilutions of inhibitor, drug stock solutions of 10 ​mM in DMSO were diluted to 50 ​μM in water; subsequent dilutions were in 0.5 ​% DMSO. Afterwards, 2 ​μL of fluorogenic P5-P5′ BACE1 substrate, diluted to 50 ​μM in assay buffer, were added to each well and the signal generated was read every 30 ​min at 25 ​°C for 2 ​h.

[1] = tested on: CHO-7W cells expressing wildtype human APP; experiment: sAPPβ and Aβ1-42 production in CHO-7W cells (AlphaLISA); type: cell-based, Chinese hamster; settings: 1 μM, in words
Protocol: Culture Media was collected and frozen. Media was assayed using an AlphaLISA for Aβ1-42 (Perkin Elmer catalog # AL276C), sAPPα (R&D Systems catalog # AF1168 conjugated with Perkin Elmer acceptor beads catalog # 6772001 + 2B3 antibody from IBL catalog # 11088 biotinylated), and sAPPβ (Perkin Elmer AL276-acceptor + IBL catalog # 18957 biotinylated). For the assay, 2 μL of diluted or undiluted sample was added to a 384 well plate, followed by 2 μL of the respective antibody mixture. This was incubated for 1 h. Afterwards, 2 μL of donor beads was added to each well, followed by a 30-min incubation in the dark, after which the signal was read.

BACE1 cleavage of PSGL1 = target: T1, BACE1 cleavage of PSGL1 (Homo sapiens, UniProt P56817); experiment: PSGL1 assay (SEAP-PSGL1); type: cell-based; settings: SEAP-PSGL1, HEK293
T1 construct: with or without full-length wild-type BACE1; expressed in transfected cells; host or cells: HEK293
Protocol: A cDNA construct encoding a human placental secreted alkaline phosphatase (SEAP)-PSGL1 (pAPtag5-PSGL1-β1) fusion protein was transfected in human embryonic kidney (HEK293) cells in a 6-well format with or without full-length wild-type BACE1 using Lipofectamine 2000 (Invitrogen). After 6–8 ​h transfection, the medium was replaced with DMEM containing the test compound at 10, 5, 1, 0.1 and 0.01 ​μM and 10 ​% heat-inactivated fetal bovine serum (FBS), and incubated for 24 ​h. SEAP activity was measured in the conditioned medium.

cathepsin D (CatD) = target: T2, cathepsin D (CatD) (Homo sapiens, UniProt P07339); experiment: Cathepsin D activity assay; type: biochemical; settings: in words
T2 construct: purchased R&D Systems 1014-AS
Protocol: The effects of candidate ASBIs on cathepsin D (CatD) activity was assessed using the R&D Systems CatD activity assay kit (Catalog #: 1014-AS and ES001) according to the manufacturer's instructions. For the assay, 4 μL of assay buffer was added to each well, followed by 2 μL of CatD diluted in assay buffer to 5 ng/uL. Then, 2 μL of inhibitor, at concentrations along an 11 pt. two-fold dilution series starting at 50 μM, were added to appropriated wells and incubated for 30 min at room temperature. For all dilutions of inhibitor, drug stock solutions of 10 mM in DMSO were diluted to 50 μM in water; subsequent dilutions were in 2.5 % DMSO. Afterwards, 2 μL of fluorogenic CatD substrate, diluted to 50 μM in assay buffer, were added to each well, after which the signal generated was read every 30 min at 25 °C for 1hr.

eAPP = eAPP (Homo sapiens, UniProt P05067); experiment: APP binding by surface plasmon resonance (SPR)
Protocol: The interaction of FAH3, 17 and 65 were evaluated using the SPR protocol described previously in Descamps et al., [26].
For these pilot experiments eAPP as described in Descamps et al (26) is crosslinked to a the CM5 Biacore chip. FAH3 at various concentration was used in the flow through the chip, and the plasmon resonance signal was determined using a Biacore T100. The raw data uncorrected for contribution of running buffer is fit to equilibrium binding data and corrected for the contribution of the running buffer to
For FAH17 and FAH65-APP binding was determined using SPR to determine competition with BSA that non-specifically binds to the eAPP-Biacore chip.

BACE1 cleavage of NRG1 = target: T3, BACE1 cleavage of NRG1 (Homo sapiens, UniProt P56817); experiment: SEAP-NRG assay; type: cell-based; settings: SEAP-NRG1, HEK293
T3 construct: with or without full-length wild-type BACE1; expressed in transfected cells; host or cells: HEK293
Protocol: A cDNA construct encoding a human placental secreted alkaline phosphatase (SEAP)-NRG1 (pAPtag5-NRG1-β1) fusion protein was transfected in human embryonic kidney (HEK293) cells in a 6-well format with or without full-length wild-type BACE1 using Lipofectamine 2000 (Invitrogen) as described previously [27]. After transfection, the medium was replaced with DMEM containing the test compound at 10, 5, 1, 0.1, and 0.01 ​μM as well as 10 ​% heat-inactivated fetal bovine serum (FBS), then incubated for 24 ​h. SEAP activity was measured in the conditioned medium.

[2] = target: BACE1 cleavage of MBP-APPC125 substrate (Homo sapiens, UniProt P56817); experiment: MBP-APPC125 BACE1 cleavage assay; type: biochemical; settings: in words
Protocol: (-)/peak 2 enantiomers. […] Specifically, 2 μL of the Acc-Mix was loaded into each well and incubated for 1-hour at RT, then 2 μL of Donor-Mix was added and incubated for 30 min at room RT protected from light. The signal was quantified using an Envision Plate reader (Fig S6). Testing of FA[…](-) in HEK-APP-GFP cells HEK293T cells stably transfected with human APP (P05067-1, […]) tagged with Green Fluorescent Protein (GFP) on the N-terminal (HEK-APP; AcroBiosystems cat# CHEK-ATP081) were cultured according to manufacturer recommendations. […] Cells were then washed with PBS and imaged at 37 °C and 5% CO2 using a BioTek Lionheart FX microscope using brightfield and green fluorescence filters with a 20X objective. Images were then processed with Gen5 software to obtain the total intensity of the GFP channel (469/525) and the mean GFP channel intensity.(Fig S7, S8) Supplementary Figures Figure S1. BACE inhibition dose-response and pharmacokinetics for FAH1 and FAH3. (a) IC50 curves for FAH1, 3, 17 and 65 in the P5-P5' assay described in main manuscript. […] μM, respectively. […] 150 FAH-65 BA C E-IV 100 50 0 50 10 0. 1 [ ] µM Figure S2. FAH65 in the BACE2 assay. […] 6 (1 picture or pasted object on this page, not shown here)

Chain of BACE1 (P56817 46-501): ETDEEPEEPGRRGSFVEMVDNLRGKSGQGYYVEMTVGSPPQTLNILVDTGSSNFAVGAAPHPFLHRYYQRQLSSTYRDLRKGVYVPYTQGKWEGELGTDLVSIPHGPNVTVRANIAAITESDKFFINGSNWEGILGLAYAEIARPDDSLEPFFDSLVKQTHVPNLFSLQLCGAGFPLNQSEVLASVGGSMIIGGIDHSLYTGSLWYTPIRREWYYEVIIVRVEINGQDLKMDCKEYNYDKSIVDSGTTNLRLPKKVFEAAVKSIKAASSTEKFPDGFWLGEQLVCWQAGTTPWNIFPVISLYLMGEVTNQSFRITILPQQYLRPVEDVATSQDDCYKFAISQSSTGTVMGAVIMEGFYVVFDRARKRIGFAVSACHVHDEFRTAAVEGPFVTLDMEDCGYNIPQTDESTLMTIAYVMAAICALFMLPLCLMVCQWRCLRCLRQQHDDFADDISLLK
Chain of BACE1 cleavage of MBP-APPC125 substrate (P56817 46-501): as above
T1 sequence (P56817 46-501): as above
T3 sequence (P56817 46-501): as above
T2 sequence (P07339 65-412): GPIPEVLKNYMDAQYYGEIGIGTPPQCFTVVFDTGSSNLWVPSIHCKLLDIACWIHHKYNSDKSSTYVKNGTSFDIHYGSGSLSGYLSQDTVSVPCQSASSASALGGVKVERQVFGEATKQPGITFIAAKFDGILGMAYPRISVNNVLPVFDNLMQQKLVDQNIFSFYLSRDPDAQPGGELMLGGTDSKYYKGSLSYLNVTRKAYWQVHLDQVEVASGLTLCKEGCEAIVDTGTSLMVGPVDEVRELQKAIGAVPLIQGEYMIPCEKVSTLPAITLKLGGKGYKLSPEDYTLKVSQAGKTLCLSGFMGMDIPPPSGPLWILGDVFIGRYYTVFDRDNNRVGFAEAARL
Chain of eAPP (P05067 18-701): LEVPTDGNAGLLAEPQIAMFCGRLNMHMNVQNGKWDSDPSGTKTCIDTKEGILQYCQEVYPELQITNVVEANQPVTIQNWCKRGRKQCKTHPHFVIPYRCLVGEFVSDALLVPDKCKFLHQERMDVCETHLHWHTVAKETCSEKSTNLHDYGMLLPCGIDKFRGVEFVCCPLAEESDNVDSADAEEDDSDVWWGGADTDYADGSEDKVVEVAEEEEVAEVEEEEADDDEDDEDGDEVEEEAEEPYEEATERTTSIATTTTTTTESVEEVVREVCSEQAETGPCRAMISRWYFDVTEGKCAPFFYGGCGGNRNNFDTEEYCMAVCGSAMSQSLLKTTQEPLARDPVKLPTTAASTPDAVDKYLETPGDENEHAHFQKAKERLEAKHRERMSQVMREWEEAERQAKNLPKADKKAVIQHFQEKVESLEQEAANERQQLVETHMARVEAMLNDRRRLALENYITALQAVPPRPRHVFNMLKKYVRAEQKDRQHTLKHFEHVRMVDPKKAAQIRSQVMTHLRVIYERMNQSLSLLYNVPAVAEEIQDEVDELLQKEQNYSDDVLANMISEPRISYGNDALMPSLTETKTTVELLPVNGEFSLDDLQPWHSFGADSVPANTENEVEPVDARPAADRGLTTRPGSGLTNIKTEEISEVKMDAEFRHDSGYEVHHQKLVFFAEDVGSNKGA

SMILES | IC50 (BACE1) | sAPPβ production ([1]; 24-h treatment) | Aβ1-42 production [1] | EC50 (BACE1 cleavage of PSGL1) [µM] | inhibition of cathepsin D activity (cathepsin D (CatD)) | Kd (eAPP) [µM] | EC50 (BACE1 cleavage of NRG1) [µM] | inhibition of BACE1 cleavage of MBP-APPC125 [2]
Cc1cc(C2(c3cccc(F)c3)N=C(N)N(C)C2=O)ccc1OC(F)F (stereo not drawn) [FAH17] | ~0.3 µM and 0.3 µM | decrease | decrease | > 10 | Neither analog significantly inhibited | ~3.3 | > 10 | –
O=C1NC(=O)C(c2ccccc2)(c2ccccc2)N1 [phenytoin, reference compound] | > 200 µM | – | – | – | – | – | – | weak inhibitor
